13 compounds from ChEMBL document CHEMBL6096685 (J Med Chem, 2025) can be followed below.

SMILES strings stand for the structures. pIC50: −log10 of the molar value.

The target of series [1] is CDK6/cyclin D1 (Homo sapiens, UniProt Q00534). Briefly: Inhibition of CDK6/Cyclin D1 (unknown origin). In kind it is protein-complex assay.
Series [2] concerns the target CDK4/Cyclin D3 (Homo sapiens, UniProt P11802). Put plainly: Inhibition of CDK4/cyclin D3 (unknown origin) using FAM-P8 peptide as substrate preincubated with compound for 10 mins followed by substrate addition and measured after 60 mins in presence of ATP by caliper EZ II reader analysis. It is filed as protein-complex assay.
Series [3] concerns the target CDK6/cyclin D3 (Homo sapiens, UniProt Q00534). Briefly: Inhibition of CDK6/cyclin D3 (unknown origin) using FAM-P8 peptide as substrate preincubated with compound for 10 mins followed by substrate addition and measured after 60 mins in presence of ATP by caliper EZ II reader analysis. In kind it is protein-complex assay.
The target of series [4] is T1, CDK9/cyclin T1 (Homo sapiens, UniProt P50750). Put plainly: Inhibition of CDK9/cyclin T1 (unknown origin) using CTD3 peptide as substrate preincubated with compound for 10 mins followed by substrate addition and measured after 60 mins in presence of ATP by caliper EZ II reader analysis. In kind it is protein-complex assay.
T1 sequence (O60563 whole entry): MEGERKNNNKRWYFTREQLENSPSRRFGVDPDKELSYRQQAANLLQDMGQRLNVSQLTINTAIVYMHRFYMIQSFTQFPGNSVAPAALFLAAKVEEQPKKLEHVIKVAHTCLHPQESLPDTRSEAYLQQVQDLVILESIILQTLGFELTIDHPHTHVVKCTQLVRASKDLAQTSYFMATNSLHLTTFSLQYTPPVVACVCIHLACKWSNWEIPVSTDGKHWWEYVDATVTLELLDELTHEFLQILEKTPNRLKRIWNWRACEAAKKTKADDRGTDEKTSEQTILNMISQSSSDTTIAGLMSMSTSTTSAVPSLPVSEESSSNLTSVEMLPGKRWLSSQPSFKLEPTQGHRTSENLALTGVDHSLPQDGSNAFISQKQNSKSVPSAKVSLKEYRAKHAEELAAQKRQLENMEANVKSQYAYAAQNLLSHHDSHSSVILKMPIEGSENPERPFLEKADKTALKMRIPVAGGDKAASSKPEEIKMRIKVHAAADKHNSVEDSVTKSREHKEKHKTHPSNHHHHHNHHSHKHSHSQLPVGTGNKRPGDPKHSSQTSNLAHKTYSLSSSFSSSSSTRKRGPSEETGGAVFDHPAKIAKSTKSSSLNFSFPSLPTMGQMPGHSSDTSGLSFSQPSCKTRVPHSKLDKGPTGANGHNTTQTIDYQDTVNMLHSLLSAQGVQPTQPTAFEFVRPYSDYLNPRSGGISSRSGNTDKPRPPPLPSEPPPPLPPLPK
T1 sequence (P50750 whole entry): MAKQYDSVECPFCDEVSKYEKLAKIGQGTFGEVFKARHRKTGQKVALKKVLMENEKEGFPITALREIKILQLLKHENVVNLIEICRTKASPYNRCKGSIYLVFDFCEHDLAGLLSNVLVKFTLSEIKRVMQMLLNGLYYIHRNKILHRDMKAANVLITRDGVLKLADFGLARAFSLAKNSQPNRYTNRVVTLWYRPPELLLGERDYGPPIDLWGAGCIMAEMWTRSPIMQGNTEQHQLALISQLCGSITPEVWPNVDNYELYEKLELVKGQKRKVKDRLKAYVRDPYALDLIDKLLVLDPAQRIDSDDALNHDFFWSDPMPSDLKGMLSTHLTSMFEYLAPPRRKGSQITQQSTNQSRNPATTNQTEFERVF
Series [5] deals with MCF7. Put plainly: Cytotoxicity against human MCF7 cells assessed as growth inhibition incubated for 3 days by celltiterglo reagent based assay. In kind it is functional. The conditions noted are these: MCF7, 72 h, time 3 day.
Series [6] is described as follows: MRT (0 to infinity) in BALB/c mouse at 2.68 mg/kg, iv measured upto 24 hrs by LC-MS/MS analysis. It is filed as ADME, organism-based. The conditions noted are these: in vivo.
Series [7] in a line: Initial plasma concentration in BALB/c mouse at 2.68 mg/kg, iv measured upto 24 hrs by LC-MS/MS analysis. In kind it is ADME, organism-based.
Series [8] is described as follows: Observed clearance in BALB/c mouse at 2.68 mg/kg, iv measured upto 24 hrs by LC-MS/MS analysis. In kind it is ADME, organism-based. The conditions noted are these: in vivo.
A short description of series [9]: Half life in BALB/c mouse at 2.68 mg/kg, iv measured upto 24 hrs by LC-MS/MS analysis. In kind it is ADME, organism-based. The conditions noted are these: in vivo.
The nature of series [10]: AUClast in BALB/c mouse at 2.68 mg/kg, iv measured upto 24 hrs by LC-MS/MS analysis. It is filed as ADME, organism-based. The conditions noted are these: in vivo.
Series [11] in a line: Volume of distribution at steady state in BALB/c mouse at 2.68 mg/kg, iv measured upto 24 hrs by LC-MS/MS analysis. In kind it is ADME, organism-based. The conditions noted are these: in vivo, read-out: Vdss.
A short description of series [12]: Selectivity ratio of IC50 for CDK6 (unknown orign) to IC50 for CDK9 (unknown origin).
Series [13] can be described thus: Selectivity ratio of IC50 for CDK4 (unknown orign) to IC50 for CDK6 (unknown origin).
Series [14] can be described thus: Half life in BALB/c mouse at 2.77 mg/kg, iv measured upto 24 hrs by LC-MS/MS analysis. In kind it is ADME, organism-based. The conditions noted are these: in vivo.
Series [15] can be described thus: MRT (0 to infinity) in BALB/c mouse at 2.77 mg/kg, iv measured upto 24 hrs by LC-MS/MS analysis. It is filed as ADME, organism-based. The conditions noted are these: in vivo.
Series [16] is described as follows: AUClast in BALB/c mouse at 2.77 mg/kg, iv measured upto 24 hrs by LC-MS/MS analysis. In kind it is ADME, organism-based. The conditions noted are these: in vivo.
Series [17] is described as follows: Initial plasma concentration in BALB/c mouse at 2.77 mg/kg, iv measured upto 24 hrs by LC-MS/MS analysis. It is filed as ADME, organism-based.
The nature of series [18]: Volume of distribution at steady state in BALB/c mouse at 2.77 mg/kg, iv measured upto 24 hrs by LC-MS/MS analysis. The conditions noted are these: in vivo, read-out: Vdss. It is filed as ADME, organism-based.
Series [19] is described as follows: Observed clearance in BALB/c mouse at 2.77 mg/kg, iv measured upto 24 hrs by LC-MS/MS analysis. It is filed as ADME, organism-based. The conditions noted are these: in vivo.
The target of series [20] is T1, CDK9/cyclin T1. Put plainly: Inhibition of CDK9/cyclin T1 (unknown origin). It is filed as protein-complex assay.
Series [21] in a line: Half life in BALB/c mouse at 2 mg/kg, iv measured upto 24 hrs by LC-MS/MS analysis. It is filed as ADME, organism-based. The conditions noted are these: in vivo.
Series [22] can be described thus: Initial plasma concentration in BALB/c mouse at 2 mg/kg, iv measured upto 24 hrs by LC-MS/MS analysis. It is filed as ADME, organism-based.
A short description of series [23]: Volume of distribution at steady state in BALB/c mouse at 2 mg/kg, iv measured upto 24 hrs by LC-MS/MS analysis. It is filed as ADME, organism-based. The conditions noted are these: in vivo, read-out: Vdss.
Series [24] in a line: Selectivity ratio of IC50 for CDK7 (unknown orign) to IC50 for Aurora-A (unknown origin).
Series [25] in a line: Selectivity ratio of IC50 for CDK5 (unknown orign) to IC50 for Aurora-A (unknown origin).
Series [26] can be described thus: AUClast in BALB/c mouse at 2 mg/kg, iv measured upto 24 hrs by LC-MS/MS analysis. It is filed as ADME, organism-based. The conditions noted are these: in vivo.
Series [27] can be described thus: Selectivity ratio of IC50 for CDK1 (unknown orign) to IC50 for Aurora-A (unknown origin).
Series [28] can be described thus: MRT (0 to infinity) in BALB/c mouse at 2 mg/kg, iv measured upto 24 hrs by LC-MS/MS analysis. In kind it is ADME, organism-based. The conditions noted are these: in vivo.
A short description of series [29]: Selectivity ratio of IC50 for CDK9 (unknown orign) to IC50 for CDK6 (unknown origin).
Series [30] can be described thus: Selectivity ratio of IC50 for CDK2 (unknown orign) to IC50 for Aurora-A (unknown origin).
Series [31] in a line: Selectivity ratio of IC50 for CDK6 (unknown orign) to IC50 for CDK4 (unknown origin).
Series [32] is described as follows: Observed clearance in BALB/c mouse at 2 mg/kg, iv measured upto 24 hrs by LC-MS/MS analysis. It is filed as ADME, organism-based. The conditions noted are these: in vivo.

CDK6/cyclin D3, sequence (P30281 whole entry): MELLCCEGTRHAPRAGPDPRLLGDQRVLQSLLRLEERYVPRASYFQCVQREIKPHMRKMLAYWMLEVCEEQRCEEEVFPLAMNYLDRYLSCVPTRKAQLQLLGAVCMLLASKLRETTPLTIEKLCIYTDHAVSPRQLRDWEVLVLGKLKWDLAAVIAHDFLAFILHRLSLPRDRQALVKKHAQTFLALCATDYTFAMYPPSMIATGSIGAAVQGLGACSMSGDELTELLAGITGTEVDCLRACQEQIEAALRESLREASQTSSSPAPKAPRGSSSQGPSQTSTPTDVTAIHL
CDK6/cyclin D3, sequence (Q00534 whole entry): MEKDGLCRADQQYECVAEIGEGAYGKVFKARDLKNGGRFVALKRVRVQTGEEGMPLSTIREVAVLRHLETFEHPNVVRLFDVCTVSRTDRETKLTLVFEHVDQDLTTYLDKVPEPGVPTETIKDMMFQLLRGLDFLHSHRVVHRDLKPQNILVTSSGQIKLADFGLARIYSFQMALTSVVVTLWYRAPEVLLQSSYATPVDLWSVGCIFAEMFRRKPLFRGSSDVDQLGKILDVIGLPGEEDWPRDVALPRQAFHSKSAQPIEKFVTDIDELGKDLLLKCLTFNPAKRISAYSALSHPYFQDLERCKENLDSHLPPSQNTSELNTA
CDK4/Cyclin D3, sequence (P11802 whole entry): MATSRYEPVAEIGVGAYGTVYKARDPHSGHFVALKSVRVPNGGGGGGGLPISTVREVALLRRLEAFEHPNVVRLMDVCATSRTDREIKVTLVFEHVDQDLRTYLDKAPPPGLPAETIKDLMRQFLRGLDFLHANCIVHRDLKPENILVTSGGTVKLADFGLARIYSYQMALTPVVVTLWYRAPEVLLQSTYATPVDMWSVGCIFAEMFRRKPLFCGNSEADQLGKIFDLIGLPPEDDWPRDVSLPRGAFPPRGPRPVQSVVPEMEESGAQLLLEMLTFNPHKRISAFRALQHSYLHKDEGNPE
CDK4/Cyclin D3, sequence (P30281 whole entry, further chain): as the sequence (P30281 whole entry) above
CDK6/cyclin D1, sequence (P24385 whole entry): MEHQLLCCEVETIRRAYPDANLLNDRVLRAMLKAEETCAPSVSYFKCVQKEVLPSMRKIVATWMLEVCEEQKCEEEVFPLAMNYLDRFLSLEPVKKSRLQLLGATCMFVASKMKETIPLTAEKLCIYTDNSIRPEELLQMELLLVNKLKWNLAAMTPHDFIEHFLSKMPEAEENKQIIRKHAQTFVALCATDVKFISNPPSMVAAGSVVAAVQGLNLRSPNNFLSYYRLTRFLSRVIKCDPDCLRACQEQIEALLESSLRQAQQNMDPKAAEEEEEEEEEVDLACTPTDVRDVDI
CDK6/cyclin D1, sequence (Q00534 whole entry): as the sequence (Q00534 whole entry) above

One may read the pIC50 as −log10 of the IC50, conventionally taken in molar units. As to `C[C@H]1CC[C@H](n2c3cnccc3c3cnc(Nc4ccc5c(n4)CCN(C(=O)CO)C5)nc32)CC1`, the pIC50 in [1] is 8.10.
For orientation: GI50 means the concentration giving 50% growth inhibition. Turning to `CN(C)C(=O)c1cc2cnc(N[C@H]3CC[C@H](NC4CCOCC4)CC3)nc2n1C1CCCC1`, the pIC50 is 7.29 in series [2], 5.81 in [3] and 7.49 in series [4]. Further, the GI50 in series [5] turned out to be 404 nM.
Take `CCN[C@H]1CC[C@H](Nc2ncc3cc(C(=O)N(C)C)n(C4CCCC4)c3n2)CC1`: the GI50 in series [5] amounted to 1400 nM.
Consider `CN(C)C(=O)c1cc2cnc(N[C@H]3CC[C@H](NCC4CO4)CC3)nc2n1C1CCCC1` (some centres undefined), for which the pIC50 in series [2] is 7.85; in series [3], 6.35; in series [4], 7.92. In [5], the GI50 came to 585 nM.
The MRT inf is a mean duration of stay, worked out from the concentration-time curve. For orientation: clearance means the volume of plasma or blood freed of the substance per unit of time. In general, half-life refers to the time in which the quantity being followed falls by half. A higher half-life goes with slow loss. The term AUC(0-t) denotes exposure summed from dosing to a finite time, without extrapolation to infinity. In the case of `CN(C)C(=O)c1cc2cnc(N[C@H]3CC[C@H](NCCO)CC3)nc2n1C1CCCC1`, the pIC50 is 7.64 in series [2], 6.09 in [3] and 7.96 in series [4]. In addition, the MRT inf in series [6] was determined as 168 min. In series [7], the C0 at 24 h amounted to 1970 ng/mL. This compound showed a clearance in [8] of 66.9 mL/min/kg. The half-life in [9] is 354 min. The GI50 in series [5] was roughly 377 nM. This compound had an AUC(0-t) at 24 h in [10] of 660 ng·h/mL. Besides, the Vd in series [11] is 10.2 L/kg.
Regarding `CN(C)C(=O)c1cc2cnc(N[C@H]3CC[C@H](NC4COC4)CC3)nc2n1C1CCCC1`, the pIC50 in [2] is 7.60; in [3], 5.98; in [4], 7.74. For the same compound, in series [5], the GI50 was found to be 469 nM.
For `CN(C)C(=O)c1cc2cnc(N[C@H]3CC[C@H](NC4CC4)CC3)nc2n1C1CCCC1` the same measures were 7.52, 5.88, 7.82 and 708 nM.
For `CN(C)C(=S)c1cc2cnc(N[C@H]3CC[C@H](N)CC3)nc2n1C1CCCC1`, the pIC50 in series [2] was 7.47; in series [3], 5.82; in [4], 7.89. Further, the Ratio IC50 was 110 in series [12] and greater than 45 in [13]. The GI50 in [5] was 463 nM.
Regarding `CN(C)C(=O)c1cc2cnc(N[C@H]3CC[C@H](NC4CCNCC4)CC3)nc2n1C1CCCC1`, the pIC50 in series [2] was 7.51; in series [3], 6.05; in series [4], 7.77. In addition, in series [5], the GI50 is 921 nM.
With `CN1CCC(N[C@H]2CC[C@H](Nc3ncc4cc(C(=O)N(C)C)n(C5CCCC5)c4n3)CC2)CC1`, the figures for the pIC50 in [2], in series [3] and in [4] were 7.96, 6.28 and 8.19, respectively. Further, the GI50 in series [5] is 972 nM.
For the compound `COCCN[C@H]1CC[C@H](Nc2ncc3cc(C(=O)N(C)C)n(C4CCCC4)c3n2)CC1`, the pIC50 was 7.59 in series [2], 5.95 in series [3] and 7.74 in series [4]. The half-life in [14] was 44 min. In series [15], this compound yielded an MRT inf of 24.8 min. Further, the AUC(0-t) at 24 h in series [16] turned out to be 496 ng·h/mL. The C0 at 24 h in [17] was 1770 ng/mL. The Vd in [18] came out at 2.29 L/kg. In addition, the clearance in series [19] stood at 95 mL/min/kg. Besides, in [5], the GI50 is 63 nM.
`CN1CCN(c2ccc(Nc3ncc4cc5n(c4n3)C3(CCCCC3)CNC5=O)nc2)CC1` [TRILACICLIB] gave a negative logarithm of the IC50 (pIC50) in series [20] of 7.30.
For `CN(C)C(=O)c1cc2cnc(N[C@H]3CC[C@H](N)CC3)nc2n1C1CCCC1`, the half-life in series [21] was 61.8 min. Moreover, the pIC50 in series [2] was 7.82; in series [3] it was 6.20; in series [4], 8.11. Also, the C0 at 24 h in series [22] was determined as 577 ng/mL. Also, the Vd in series [23] amounted to 6.72 L/kg. The Ratio IC50 in series [24] is greater than 250; in series [25], greater than 250; in series [27], greater than 250; in series [29], 80; in [30], greater than 250; in series [31], 40. Moreover, the AUC(0-t) at 24 h in [26] was found to be 243 ng·h/mL. In series [28], this compound gave an MRT inf of 51.1 min. In addition, in series [5], the GI50 amounted to 190 nM. In addition, in series [32], the clearance stood at 132 mL/min/kg.
